These results are taken from US8476317B2, “N-alkylcarbonyl-amino acid ester compounds and their use for cough and pharyngitis” (priority 2011, dated 2013).

Data set [1] relates to philtrum skin. The experiment in a line: Cooling on facial (philtrum) skin, ointment. Particulars: for Philtrum Skin (min), duration of cooling: 5 mg/ml in Aquaphor ointment. It counts as in vivo, human. The text has this: A reliable place for topical application is the skin above the upper lip (above the vermilion border of the lips), on the philtrum, lateral to the philtrum until the nasolabial folds, and on the lower nostrils (subnasale). This part of the face is known to be densely innervated with cold receptors, second only to the surfaces of the eyeball and anogenitalia. At this locus, tingling, cool and cold sensations in the skin may be experienced and rated for time of onset and intensity.
The intervals for recording sensations are 5 to 10 minutes, until two successive zeroes are obtained. The results (shown in FIG. 1) are averaged values of 4 to 6 separate trials in the same individual. The data are plotted using SigmaPlot® (Systat Software, Point Richmond Calif.) and a smoothing function with a negative exponential was used for analysis and statistical fit of the results. Confirmatory trials of cooling action of the long-acting NACE compounds were obtained in 2 to 4 individuals but not quantified for some because of the large number of chemicals that were evaluated.
The onset of drug action is taken as the time to reach 2 units of coolness intensity, and offset of drug action is the time when coolness intensity drops below 2, after previously surpassing 2 units. The duration of cooling action is defined as the offset time minus the onset time. […] The quality of the sensation is noted, for example, as pure refreshing coolness, or if the sensation is accompanied by irritation (stinging or burning). The quality of the sensation is not rated for intensity.
For bioassay on the skin, approximately 30 mg was stirred and dissolved in 3 g of warm liquid Aquaphor® ointment to a yield a 40 mM (˜1% wt/vol) ointment. The exact amount was adjusted so that the molar equivalent was about 35 to 40 mM. After cooling, 40 to 70 mg of the solid ointment was placed on the tip of a plastic stick and applied to the skin above the upper lip, on the philtrum, and lateral to the philtrum, up to the nasolabial folds, of test subjects and the onset and duration of cooling sensations noted.
The intervals for recording sensations were 5 to 10 minutes, until two successive zeroes were obtained. The results (shown in FIG. 1) are averaged values of 4 to 6 separate trials in the same individual. The data are plotted using SigmaPlot® (Systat Software, Point Richmond, Calif., USA) and a smoothing function with a negative exponential was used for analysis and statistical fit of the results.
The onset of drug action was taken as the time to reach 2 units of coolness intensity, and offset of drug action was the time when coolness intensity drops below 2, after previously surpassing 2 units. The duration of cooling action was defined as the offset time minus the onset time. […] The quality of the sensation was also noted: such as pure refreshing coolness, or if the sensation was accompanied by irritation (stinging or burning). The quality of the sensation was not rated for intensity.
In the results of FIG. 1, the test compounds were singly applied to the skin above the upper lips as a ˜1% wt/vol (10 mg/ml) ointment. Subsequently, for the results shown in Table 3, the test dose on the philtrum was reduced to a 0.5% wt/vol (5 mg/ml) ointment. The reason for choosing a lower dose was to increase the number of trials per individual and to have a reduced chance of substances accumulating in the skin.

The subject of the next data set is cough. The format is in vivo, human. On the procedure:
In 20 trials, 10 trials per subject, two mg of 95%+ pure powder of a D-Ala ethyl compound (No. 2 in Table 1, (R)-2-[((1R,2S,5R)-2-isopropyl-5-methyl-cyclohexanecarbonyl)-amino]-propionic acid ethyl ester)) of Formula (1) was placed on the mid-portion of the tongue of these two subjects. Both subjects reported relief from the desire to cough within 1 minute after application. Sensations of robust coolness in the back of the throat was noted and lasted for about 30 minutes. Applications of similar amounts of powdered sugar were not effective. The placebo could be clearly distinguished from the active compound because of the absence of cooling sensations.
A person with a documented 31-year history of asthma attacks volunteered to test one of the compounds falling within Formula (1). They were extremely sensitive to agents such as tobacco smoke, dust, pollen, odors, down/woolen materials, house cleansing products, pets, and sudden change of air temperature, and reacted with violent coughing, mucus secretions, wheezing, choking, and shortness of breath. At the time of this trial, they were taking these medications for their condition: theophylline, Allegra®, Advair®, Intal®, and Singulair®. In 5 trials, during a coughing spree, they placed one to two mg of 95%+ pure powder of a D-Ala ethyl ester (No. 2 in Table 1, ((R)-2-[((1R,2S,5R)-2-isopropyl-5-methyl-cyclohexanecarbonyl)-amino]-propionic acid ethyl ester))) of Formula (1) on the mid-portion of their tongue. They reported a soothing and cool sensation with a slight taste similar to Eucalyptus oil in their mouth and throat. Coughing stopped after 3 to 5 minutes and breathing was normal. […] In three trials when the compound was applied at night, they slept through the night without being awakened by cough. Their spouse remarked that, in over 30 years of marriage, this was the first time that they had seen an effective medication for their cough. They noted that the irritative signals of cough were absent in the presence of the applied chemical, but they still sensed a mechanical build up of secretions in their airways and could voluntarily cough up such secretions if necessary. They continue to use the test compound for management of their asthma, with the knowledge and consent of their physician.
A person had adult-onset asthma for 20 years. Triggers for attacks were tobacco smoke, dust, and changes in air temperature. They used Foradil® (formoterol fumarate) and Asmanex® (mometasone fuorate) twice a day to control their asthma, and monitored their pulmonary function with a portable device for measuring peak expiratory flow. They had daily episodes of both productive and non-productive cough. In 5 trials, when they felt throat irritation and a desire to cough, placement of 1 to 3 mg of (R)-2-[((1R,2S,5R)-2-isopropyl-5-methyl-cyclohexanecarbonyl)-amino]-propionic acid ethyl ester) (No. 2 in Table 1) provided rapid relief and was described as soothing and removed “tightness” in the chest. Peak expiratory flow improved from 320 Umin to 370 Umin. […] The subjective response to the long-acting NACE compound was definitely favourable. The subject remarked that the best time to use the NACE compuound was after inhaling the crystalline Foradil® because this inhaled drug irritated their throat.
ODT containing 2.0 to 2.5 mg of D-Aa Me Ester, D-Ala Et Ester, or D-Ala iPr Ester (identified chemically in Table 1 as No. 1, No. 2, and No. 3, respectively) were prepared using mannitol/maltitol as the excipient and stored in tic-tac boxes each containing 10 tablets. Over a course of two years, 14 adult males with cough tested these tablets. The causes of coughing were colds/flu, allergies, pharyngitis, excessive smoking, and two cases of gastroesophageal reflux. These individuals all had advanced degrees (M.D. or Ph.D.) and were motivated to try the tablets by scientific curiosity or because of financial interests in drug development, or, in several cases, by the annoyance caused by the cough. […]

The subject of the next data set is ocular surface. Nature of the data set: Eye wipe test, duration of cooling on ocular surface. Particulars: eye wipes 1 mg/ml in 5%-95% v/v ethanol-distilled water. The format is in vivo, human. On the procedure: To further document the activities fo the test molecules, the results from an eye wipe test was included. Here the test substance is applied to the closed eyelids with a towelette at a concentration of 1 mg/ml in 5%-ethanol-95%-distilled water vol/vol and the duration of cooling on the ocular surface was recorded. […] It is likely that the mucous membranes that line the ocular surface and the pharynx have similar sensory mechanisms that are somewhat different from the philtrum skin which is keratinized.

Another data set relates to pharyngeal surface. The experiment in a line: Chili-pepper sauce cough challenge test. The format is in vivo, human. Set-up: key: If there is no attenuation of the challenge stimuli, the score is 0; if there is partial inhibition, the score is +; if there is complete attenuation of the cough signal, the score is ++. The following applies: challenge 45 to 50 min after ODT containing 2 mg of test substance. The text has this:
A number of cough challenge methods have been devised for evoking the cough reflex (Morice et al. Briti. J. Clin. Pharmacol. 52: 365-375, 2001). Usually, citric acid or capsaicin is delivered via the inhalation route to volunteers and the number of coughs counted. […] The chili pepper sauce used here is called Yank Sing® Chili Pepper Sauce (YS Gourmet Productions, Inc., PO Box 26189, San Francisco, Calif. 94126) and is a well-known condiment for use with dim sum (Chinese tea lunch). The sensations associated with the chili pepper sauce are located in the back of the mouth and are clearly recognized and associated with a desire to clear the throat. […] To test for anti-cough activity the ODT with the test substance is first administered onto the dorsal surface of the tongue and 45 to 50 min afterwards the chili-pepper sauce test is administered. If there is no attenuation of the challenge stimuli, the score is 0, if there is partial inhibition, the score is +, and if there is complete attenuation of the cough signal, the score is ++. In the presence of an ODT that results in a ++ score, the irritative signals are completely absent, yet the salty taste used in the soy sauce of the condiment can still be easily tasted. The test substances in the ODT that produced a ++ score were then identified and further tested for effectiveness in the treatment of cough.

For data set [2], the system named is philtrum skin. Particulars: ˜10 mg/ml on the skin; as shown in U.S. 20080227857; cited from earlier work.
The next data set deals with oral cavity / oropharynx. The experiment in a line: Cooling in oral cavity after application on dorsal surface of tongue. Particulars: 2 to 5 mg on tongue. The format is in vivo, human. On the procedure:
The subject is instructed to close and hold the substance in the mouth for at least 10 seconds and not to swallow. The description of sensations is then recorded at 5 to 10 minute intervals.
The compounds of Formula 1 are white crystalline solids at room temperatures. These compounds were tested as the pure powder (>95% purity, by HPLC analysis), or mixed 1:1 with powdered or granulated sugar. The test substances were applied at 2 to 5 mg on the mid-point of the dorsal surface of the tongue using a metal spatula or a plastic applicator. After depositing the test substance on the tongue, the subject was instructed to keep the mouth closed and allow the fluids of the mouth to inter-mix with the test substance and to distribute it to the back of the mouth (oropharynx). The presence and duration of subjective sensations from the mouth was then recorded.

As for `CC(C)OC(=O)[C@@H](C)NC(=O)[C@@H]1C[C@H](C)CC[C@H]1C(C)C` [D-Ala-OiPr, (R)-2-[((1R,2S,5R)-2-isopropyl-5-methyl-cyclohexanecarbonyl)-amino]-propionic acid isopropyl ester], the “Philtrum Skin (min), duration of cooling” value with philtrum skin [1] was determined as 34 min. Further, the “skin or eye irritancy” value in the data set with philtrum skin [1] (in vivo) is “without skin or eye irritancy”. The “cooling action of ODT on the pharyngeal surface” value with cough (Study 6, ODT) was “robust cooling action”. Moreover, in the data set with cough (Study 6, ODT 2.0 to 2.5 mg, 14 adult males with cough), the “effectiveness in reducing cough” value is 100%. Moreover, the “Eyelids/Ocular Surface (min), duration of cooling” value (shortened to “Eyelids/Ocular Surface (min)”) in the data set with ocular surface was 360 min. The “Chili-Pepper Sauce Test” value with pharyngeal surface is recorded as “++”.
With `CCCCOC(=O)C(C)NC(=O)[C@@H]1C[C@H](C)CC[C@H]1C(C)C` (stereo partly drawn) [D-Ala-OnBu], in the data set on philtrum skin [1], the “Philtrum Skin (min), duration of cooling” value came to 80 min. Besides, the “Eyelids/Ocular Surface (min)” value in the data set on ocular surface turned out to be 40 min. Further, in the data set on pharyngeal surface, the “Chili-Pepper Sauce Test” value was found to be 0.
In the same order, the values of `CCCOC(=O)C(C)NC(=O)[C@@H]1C[C@H](C)CC[C@H]1C(C)C` (stereo partly drawn) [D-Ala-OnPr] are 108 min, 65 min and “+”.
In the same order, the values of `CCCCOC(=O)CNC(=O)[C@@H]1C[C@H](C)CC[C@H]1C(C)C` [Gly-OnBu] are 38 min, 35 min and 0.
In the same order, the values of `CCCOC(=O)CNC(=O)[C@@H]1C[C@H](C)CC[C@H]1C(C)C` [Gly-OnPr] are 42 min, 54 min and 0.
Regarding `CCOC(=O)C(C)NC(=O)[C@@H]1C[C@H](C)CC[C@H]1C(C)C` (stereo partly drawn) [L-Ala-OiPr], the “Philtrum Skin (min), duration of cooling” value in the data set on philtrum skin [1] is 27 min. Also, the “Eyelids/Ocular Surface (min)” value in the data set on ocular surface is 15 min. Also, the “Chili-Pepper Sauce Test” value in the data set with pharyngeal surface worked out at 0.
`CCOC(=O)C(C)NC(=O)[C@@H]1C[C@H](C)CC[C@H]1C(C)C` (stereo partly drawn) [L-Ala-OnBu]: the “Philtrum Skin (min), duration of cooling” value in the data set on philtrum skin [1] turned out to be 0 min. Moreover, the “Eyelids/Ocular Surface (min)” value in the data set with ocular surface was found to be 0 min. The “Chili-Pepper Sauce Test” value in the data set with pharyngeal surface is 0.
Take `CCOC(=O)C(C)NC(=O)[C@@H]1C[C@H](C)CC[C@H]1C(C)C` (stereo partly drawn) [L-Ala-OnPr]: in the data set on philtrum skin [1], the “Philtrum Skin (min), duration of cooling” value was 22 min. In addition, in the data set with ocular surface, the “Eyelids/Ocular Surface (min)” value was found to be 10 min. In addition, the “Chili-Pepper Sauce Test” value in the data set with pharyngeal surface is listed as 0.
Turning to `CCNC(=O)C1CC(C)CCC1C(C)C` (centres unmarked) [WS-3], in the data set with philtrum skin [2], the “duration / onset of action on the skin” value is listed as “short duration of action (less than 1 hour) at ˜10 mg/ml on the skin or slow onset (more than 5 minutes)”. Moreover, the “sensory irritation in oral cavity” value with oral cavity / oropharynx was “some sensory irritation”.
For `COc1ccc(NC(=O)[C@@H]2C[C@H](C)CC[C@H]2C(C)C)cc1` [WS-12], the “duration / onset of action on the skin” value in the data set on philtrum skin [2] is recorded as “short duration of action (less than 1 hour) at ˜10 mg/ml on the skin or slow onset (more than 5 minutes)”.
With `CNC(=O)C(C)(C(C)C)C(C)C` [WS-23], the “duration / onset of action on the skin” value with philtrum skin [2] is reported as “short duration of action (less than 1 hour) at ˜10 mg/ml on the skin or slow onset (more than 5 minutes)”. In addition, in the data set with oral cavity / oropharynx, the “sensory irritation in oral cavity” value was “some sensory irritation”.
